Patent publication US9241888B2, “Pharmaceutical or cosmetic composition for treating alopecia” (GIULIANI S.P.A., priority 2012, dated 2016)

What was measured:
[1] = Reactivity: air oxidation, chemiluminometric determination of N-nitroso derivatives; assay type: physicochemical; conditions: 2 mM aqueous solution diluted with water/ethanol (85/15), exposed to ambient air 72 h
From the text: The properties of 1,4-butanediamine,N-(3-aminopropyl)-N^1-methyl (II) and 1,4-butanediamine,N-(3-aminopropyl)-N^1-cyclohexyl (III) after exposure to air were studied by comparison with the corresponding non-substituted derivative, in which the N^1 amine group lacking the R substituent becomes a secondary amine group, namely 1,4-butanediamine,N-(3-aminopropyl). Since one of the common products of oxidation of the secondary amino group takes the form of the N-nitroso derivatives which are formed by reaction with the nitrogen oxides present in the air, the nitrosated derivatives which were formed upon leaving a solution of the test compounds in contact with the ambient air were determined as a parameter of reactivity.
The instrumentation used consisted of a stage on which both the analysis of the nitrite ions and the analysis of the N-nitrosamines were carried out, the latter under strong denitrosating conditions. The nitrogen oxide which developed in accordance with the amount of nitrite ions and that which developed in accordance with the quantity of nitroso groups were evaluated by way of a chemiluminometric detector.
The content of NO^2− ions was analysed using a reducing mixture of acetic acid/potassium iodide (5 ml/1 ml of 5% H2O soln.) at a temperature of 0-4° C. The nitroso groups were analysed using a denitrosating mixture of acetic acid/hydrobromic acid (5 ml/1 ml) at a temperature of 70° C.
The method for determining air oxidation of the compound was as follows.
a) a 2 mM solution of the test substance in purified water was doubly seeded, at an amount equal to 500 μl in appropriate wells of six-well plates of inert plastics material (polystyrene);
b) the solution in each well was diluted with 500 μl of a mixture of purified water and ethanol (85/15) free from contamination. This promotes the dispersion of the liquid film on the surface of the well;
c) the plate prepared in this manner is exposed to ambient air for 72 h
d) at the end of the exposure time, the residue in the well is eluted with 1 ml of purified water and then used for the chemiluminometric analysis.

[2] = tested on: hair follicles (HF) in anagen VI phase from human scalp skin; assay: Hair shaft elongation test, ex vivo organ culture of hair follicles; assay type: cell-based; conditions: 0.5 μM, day 6; for Elongation of the hair shaft with respect to the vehicle: every 48 hours
Protocol: The activity of N-methylspermidine was tested in an ex vivo model which made it possible to measure the effect on the elongation of the hair shaft. The organ culture of hair follicles (HF) in anagen VI phase involved microdissection of HF from the skin of the human scalp (temporo-frontal area) after informed consent from the subjects who were undergoing surgery (face lifts), in accordance with the Helsinki Declaration and with the approval of the Ethics Committee of the University of Lübeck. […] For immunohistochemical studies, the isolated follicles were cultured for 6 consecutive days. Spermidine, N-methylspermidine and the vehicle (distilled water) were administered once for each change of culture medium (every 48 hours), at a concentration of 0.5 μM. The measurements of the shaft elongation after the treatment with vehicle, spermidine and N-methylspermidine were taken on days 0, 1, 4 and 6, using a Zeiss inverted binocular microscope with one eyepiece containing a reticle (Carl Zeiss, Oberkochen, Germany).

NCTC2544 cells = assay: Antioxidant test: production of reactive oxygen species (ROS), DCFH-DA spectrofluorometry; assay type: cell-based, human; conditions: for Concentration of ROS products compared to control cells treated with H2O2: 1.5 h, α-tocopherol 250 μg/ml, spermidine and N-methylspermidine 1 nM-1 mM
Protocol: The production of reactive oxygen species (ROS) was monitored by spectrofluorometry using 2′,7′-dichlorofluorescein diacetate (DCFH-DA) as described by Tobi et al. (Tobi S E, Paul N, T McMillan J. J Photochem. Photobiol, B 2000: 57: 102-112).
The aforementioned NCTC2544 cells (˜80% confluence) were detached with trypsin/EDTA and seeded at a density of 5×10^4 cells per well, in 96-well plates. Subsequently, the cells were treated with the N-methylspermidine according to the invention and spermidine. The following concentrations of N-methylspermidine and spermidine were tested: 1 nM, 500 nM, 1 μM, 500 μM, 1 mM (final concentration in the culture medium).
α-tocopherol (250 μg/ml) was used as a comparison. The plates were incubated at 37° C., in 5% CO2, for 1.5 h. The cells grown on basal medium with 10% FBS were used as a control.

[3] = tested on: NCTC2544 human keratinocytes; assay: MTT Assay (cell viability / cytotoxicity); assay type: cell-based; conditions: 1 nM, 500 nM, 24 or 48 hours exposure
From the text: MTT Assay is a test used for analysing cell viability (Mosmann, 1983). It is a colorimetric test based on the use of the tetrazolium salt MTT, which measures cell viability which can then be quantified by a microplate spectrophotometric reader. MTT (3-(4,5-dimethylthiazol-2-yl)-2,5-diphenyltetrazolium bromide, a tetrazole), a yellow compound, is reduced to formazan, a purple substance, in cellular mitochondria. The absorbance of this coloured solution can be quantified by measuring it at a given wavelength (570 nm) using a spectrophotometer. The maximum absorbance will depend on the solvent used. This reduction only takes place when the mitochondrial reductase enzymes are active, and the conversion to formazan can therefore be related directly to the number of viable cells. When the amount of formazan produced by cells treated with a substance is compared with the amount produced by untreated control cells, it is possible to deduce the efficacy of the tested substance in causing cell death by producing a dose-response curve. The solutions of MTT solubilised in PBS or cell culture medium, without phenol red, are of a yellowish colour. […] The resulting purple solution is analysed by spectrophotometry. An increase in the number of cells will result in an increase in the formazan obtained and in an increase in absorbance. […]

[4] = tested on: hair follicles (HF) in anagen VI phase from human scalp skin; assay: Anagen and catagen phases in the ex vivo hair follicle model; assay type: cell-based
Protocol: The organ culture of hair follicles (HF) in anagen VI phase involved microdissection of HF from the skin of the human scalp (temporo-frontal area) after informed consent from the subjects who were undergoing surgery (face lifts), in accordance with the Helsinki Declaration and with the approval of the Ethics Committee of the University of Lübeck. […] For immunohistochemical studies, the isolated follicles were cultured for 6 consecutive days. Spermidine, N-methylspermidine and the vehicle (distilled water) were administered once for each change of culture medium (every 48 hours), at a concentration of 0.5 μM. The following results for the anagen and catagen phases, summarised in the graphs of FIGS. 5 and 6, were also obtained from the same ex vivo model of hair follicles (HF) described for the previous test of elongation of the hair shaft.

Nitroso derivatives after 72 h exposure [1]	SMILES	Elongation of the hair shaft with respect to the vehicle [2]	Concentration of ROS products compared to control cells treated with H2O2 (NCTC2544 cells)	Cytotoxic effects / cell viability in percent against the control [3]	Difference in hair shaft elongation between spermidine and N-methylspermidine [2]	Effect of prolonging the anagen phase, compared with spermidine ([4]; 0.5 μM each, 6 days)	Number of hairs entering the catagen phase, compared with spermidine ([4]; 0.5 μM each, 6 days)	Follicles entering catagen spontaneously ([4]; 0.5 μM, after 6 days of treatment, vehicle more than 60%) [%]	Percentage of hair follicles in the anagen phase ([4]; 0.5 μM, after 6 days of treatment, versus vehicle)	Antioxidant activity compared with that of spermidine (NCTC2544 cells; comparison with spermidine)
absent	CNCCCCNCCCN [N-methylspermidine, N-(3-aminopropyl)-N′-methyl-1,4-butanediamine]	improve the elongation of the hair shaft significantly	decrease in the concentration of ROS products	–	not statistically significant	greater effect of prolonging the anagen phase	significantly lower	~30	significant increase	no significant difference
absent	NCCCCN(CCCN)C1CCCCC1 [N-(3-aminopropyl)-N^1-cyclohexyl-1,4-butanediamine]	–	–	–	–	–	–	–	–	–
–	Cc1c(C)c2c(c(C)c1O)CC[C@@](C)(CCC[C@H](C)CCC[C@H](C)CCCC(C)C)O2 [α-tocopherol, reference compound]	–	decrease in the concentration of ROS products	–	–	–	–	–	–	–

SMILES	Nitroso derivatives after 72 h exposure [1]	Elongation of the hair shaft with respect to the vehicle [2]	Concentration of ROS products compared to control cells treated with H2O2 (NCTC2544 cells)	Cytotoxic effects / cell viability in percent against the control [3]	Difference in hair shaft elongation between spermidine and N-methylspermidine [2]	Effect of prolonging the anagen phase, compared with spermidine ([4]; 0.5 μM each, 6 days)	Number of hairs entering the catagen phase, compared with spermidine ([4]; 0.5 μM each, 6 days)	Follicles entering catagen spontaneously ([4]; 0.5 μM, after 6 days of treatment, vehicle more than 60%) [%]	Percentage of hair follicles in the anagen phase ([4]; 0.5 μM, after 6 days of treatment, versus vehicle)	Antioxidant activity compared with that of spermidine (NCTC2544 cells; comparison with spermidine)
NCCCCNCCCN [spermidine, N′-(3-aminopropyl)-1,4-diaminobutane, reference compound]	2.3 ppm	improve the elongation of the hair shaft significantly	decrease in the concentration of ROS products	no cytotoxic effects	–	–	–	–	–	–
